According to US20140120063A1, “NUTRITIONAL AND METABOLIC APPROACHES TO PREVENT EMERGENCE OF ENTERIC PATHOGENS” (The Board of Trustees of the Leland Stanford Junior …, priority 2012, published 2014):

Columns and labels:
[1] = test system: C. difficile; assay: C. difficile density in feces of gnotobiotic mice given exogenous free sialic acid; format: in vivo
Protocol: (BioTek, Winooski, Vt.) every 30 minutes, at 37° C. anaerobically (6% H2, 20% CO2, 74% N2). Fecal densities (CFU) of C. difficile were quantified by duplicate sampling with 1 μl loops and subsequent dilution and spot plating on blood-BHI supplemented with erythromycin.
Germ-free Swiss-Webster mice were maintained in gnotobiotic isolators and fed an autoclaved standard diet (Purina LabDiet 5K67) or a polysaccharide-deficient diet (Sonnenburg, E. D., et al. Cell, 2010. 141(7): p. 1241-52), in accordance with A-PLAC, the Stanford IACUC. For all experiments involving C. difficile colonization of germ-free mice, the diet was switched to polysaccharide-deficient chow one day before inoculation with C. difficile.
(§1) For sialic acid administration experiments, N-acetylneuraminic acid (Calbiochem or Santa Cruz Biotechnology) was administered in the water at a 1% concentration. Additionally, mice were orally gavaged 1 mg of sialic acid twice a day. The amount of sialic acid in the cecal contents were calculated to equal approximately 700 pmoles/mg of cecal contents, which mirrors the average concentration of free sialic acids we quantified post-antibiotic treatment (725 pmoles/mg).

[2] = test system: C. difficile nanE; assay: C. difficile nanE gene expression (qRT-PCR) in feces of mice given exogenous free sialic acid; format: in vivo; details: sialic acid-fed Bt-ΔBT0455-associated mice, 1 day post-infection
Protocol: as §1
qRT-PCR analysis was performed on RNA extracted from cecal or fecal contents by phenolchloroform extraction and bead beating. Superscript II (Invitrogen) was utilized to convert RNA to cDNA, and SYBR Green (ABgene) in a MX3000P thermocycler (Strategene) was utilized. Fold changes were normalized to in vitro growths in Minimal Medium containing 0.5% glucose (MM-G) for C. difficile and LB for S. typhimurium.

[3] = Amount of sialic acid in cecal contents after sialic acid administration; format: in vivo, mice; details: 1% in water plus 1 mg oral gavage twice a day
Protocol: as §1
All steps were carried out at 4° C. to minimize enzymatic hydrolysis. Approximately 200 mg of flash-frozen cecal contents were weighed out and resuspended in 400 μl dH2O, Samples were vortexed for 30 minutes at max speed and centrifuged for 15 minutes at 14,000×g in the tabletop centrifuge.
The supernatant was stored, and the pellet resuspended in an additional 400 μl dH2O. The tubes were vortexed individually until the pellet was dispersed, and then all samples were vortexed for 30 minutes, centrifuged, and supernatants were pooled. This process was repeated once more for a total volume of approximately 1 ml. […] The resulting product was analyzed by reverse-phase HPLC using a C18 column (Dionex) at a flow rate of 0.9 ml/min, using a gradient of 5% to 11% acetonitrile in 7% methanol. […] The DMB-derivatized sialic acids were identified and quantified by comparing elution times and peak areas to known standards.

[4] = test system: S. typhimurium nanA mutant; assay: Growth of S. typhimurium nanA mutant in minimal medium in the presence of sialic acid; format: cell-based; details: M9 minimal media, 0.25% sialic acid with glucose or glycerol
Protocol: FIG. 8. Requirement for S. typhimurium nan and fuc operons for in vitro growth on sialic acid and fucose. A) S. typhimurium SL1344 encodes the genes necessary to catabolize sialic acid and fucose. The nan and fuc operons are pictured in their genomic context. B) Growth of wild-type S. typhimurium and mutant S. typhimurium strains in M9 minimal medium containing 0.5% glucose (M9+glucose), 0.5% sialic acid (M9+sialic acid), or 0.5% fucose (M9+fucose). OD600 measurements were taken every 30 minutes. C, D) ΔNanA E. coli (Keio strain JW3194) and wild-type and ΔNanA S. typhimurium SL1344 strains were grown aerobically in M9 minimal media containing 0.5% total carbohydrate. Cells were grown in (C) 0.5% glucose or 0.25% glucose and 0.25% sialic acid, and (D) 0.5% glycerol (gro) or 0.25% glycerol and 0.25% sialic acid. Optical densities were measured at indicated times.
All strains of S. typhimurium were derived from wild-type strain SL1344, which is naturally streptomycin-resistant. […] Fecal densities (CFU) of S. typhimurium were quantified by duplicate sampling with 1 μl loops, and subsequent dilution and spot plating on plain LB agar for gnotobiotic experiments and LB agar with streptomycin for conventional experiments.

In the case of `CC(=O)N[C@H]1[C@H]([C@H](O)[C@H](O)CO)OC(O)(C(=O)O)C[C@@H]1O` (some centres unmarked) [sialic acid, N-acetylneuraminic acid], the “C. difficile density in the lumen of the gut” value ([1]; GF mice infected with C. difficile, free sialic acid administration vs PBS, 1 day post-inoculation) is reported as “higher densities”, the C. difficile density ([1]; feces, 1 day post-infection, Bt-ΔBT0455 monoassociated mice fed free sialic acid (1% in water plus 1 mg gavage twice a day), unsupplemented controls 6.8×10^7) is reported as 4.8×10^8 CFU/ml and the “C. difficile nanE expression, fold higher over PBS-treated controls” value [2] is reported as 58 fold. The “amount of sialic acid in the cecal contents” value [3] was “approximately 700 pmoles/mg of cecal contents” and the “toxicity of sialic acid to the nanA mutant” value [4] was “did not pose a toxicity issue”.
